We go through 27 compounds from PubChem BioAssay (NCI).

What all share (assay): DTP human tumour cell line panel, 48 h
The subject of experiment [1] is MDA-MB-435.
Experiment [2] deals with NCI-H226 lung.
Experiment [3] concerns OVCAR-3 ovarian.
Experiment [4] concerns CAKI-1 renal.
In experiment [5] the test system is ACHN renal.
Experiment [6] deals with A549 NSCLC.
Experiment [7] has as its system MDA-N.
The test system of experiment [8] is SF-295 CNS.
Experiment [9] deals with EKVX NSCLC.
For experiment [10], the system named is HOP-92 NSCLC.

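1) Cells in 96-well plates. 2) Compound, 48 h, 5 concentrations. 3) Linear interpolation between surrounding doses. 4) Unreached endpoint = highest concentration. TGI is the concentration that stops growth completely.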 Bounds are passed on as bounds.

On to `COc1cc2c(cc1O)CCN(C)[C@H]2Cc1ccc(Oc2c(O)c(OC)cc3c2C[C@H]2c4c(c(OC)c(OC)c(OC)c4-3)CCN2C)cc1`, for which the concentration for total growth inhibition (TGI) in experiment [1] turned out to be 8.7 µM; in experiment [2], 13.6 µM; in [3], 10.6 µM; in experiment [4], 10.9 µM; in [5] it was 10.7 µM; in [6] it was 10 µM. In addition, the TGI in [7] was 9.95 µM; in experiment [8] it was 11.3 µM; in experiment [9], 11.3 µM; in [10], 7.17 µM.

In the case of `COc1ccc(OC)c(C[P+](c2ccccc2)(c2ccccc2)c2ccccc2)c1`, the concentration for total growth inhibition (TGI) in experiment [1] is 13.7 µM; in experiment [2], > 61.4 µM; in [3], > 37.3 µM; in experiment [4] it was 56 µM; in experiment [5] it was > 64.2 µM; in [6], > 56.4 µM. Besides, the total growth inhibition concentration (TGI) in experiment [7] was 29.8 µM; in [8], > 75.9 µM; in experiment [9], > 94.6 µM; in [10] it was 4.39 µM.

Take `C=CC(OC(C)=O)c1ccc(OC(C)=O)cc1` (stereo not given): the total growth inhibition concentration (TGI) in experiment [1] was 11.9 µM; in experiment [2], 32.1 µM; in experiment [3], 16.4 µM; in experiment [4] it was 10 µM; in experiment [5], 6.26 µM; in [6], 43.6 µM. For the same compound, the total growth inhibition concentration (TGI) in experiment [7] stood at 10.9 µM; in [8], 22.1 µM; in [9] it was 41.4 µM; in [10] it was 22.8 µM.

For `C/C(=N/NC(=S)N1CCN(C(=S)N/N=C(/C)c2ccccn2)CC1)c1ccccn1`, the concentration for total growth inhibition (TGI) in [1] was > 100 µM; in experiment [2], > 74.5 µM; in experiment [3] it was > 100 µM; in experiment [4], > 100 µM; in experiment [5], > 44.1 µM; in [6] it was > 100 µM. Moreover, the TGI in [7], in experiment [8], in experiment [9] and in experiment [10] was > 100 µM in each case.

On to `Cn1c2ccc(C3=NCCN3)cc2c2cc(C3=NCCN3)ccc21`, for which the TGI in experiment [1], in experiment [2], in [3], in [4], in experiment [5] and in experiment [6] was > 100 µM each time. The TGI is > 100 µM in [7], > 100 µM in [8], > 100 µM in [9] and 63.7 µM in experiment [10].

Consider `CC(=O)NC(=O)NC1=NCCC(=O)N1CCc1c[nH]c2ccccc12`, for which the concentration for total growth inhibition (TGI) in [1], in experiment [2], in [3], in [4], in experiment [5] and in experiment [6] was > 100 µM in each case. In addition, the TGI in experiment [7], in experiment [8], in experiment [9] and in [10] was > 100 µM each time.

Take `COC(=O)[C@](C)(Cc1ccccc1)NC(=O)[C@@H](C)N1[C@@H](c2ccccc2)COC1(C)C`: the TGI in experiment [1], in experiment [2], in [3], in [4], in [5] and in experiment [6] was > 100 µM in each case. Also, the TGI in experiment [7], in experiment [8], in [9] and in experiment [10] was > 100 µM throughout.

For the compound `Cc1nc2cccc(F)c2c(=O)n1-c1nnc(C(F)(F)F)s1`, the TGI in experiment [1], in [2], in [3], in experiment [4], in experiment [5] and in [6] was > 10 µM in each case. Besides, the concentration for total growth inhibition (TGI) in experiment [7], in [8], in experiment [9] and in experiment [10] was > 10 µM throughout.

For `COc1cc2c(cc1OC)C(=O)/C(=C/c1ccc(O)cc1)CC2`, the concentration for total growth inhibition (TGI) in [1], in experiment [2], in experiment [3], in [4], in experiment [5] and in experiment [6] was > 10 µM throughout. The TGI in experiment [7], in experiment [8], in [9] and in [10] was > 10 µM each time.

For `COC(=O)c1cc(C)ccc1/C=C1\Cc2c(C)cc(C)cc2C1=O`, the TGI is > 100 µM in experiment [1]; > 82.7 µM in experiment [2]; > 100 µM in experiment [3]; > 89.1 µM in experiment [4]; > 100 µM in [5]; > 100 µM in experiment [6]. Besides, the TGI is > 100 µM in experiment [7], 33.1 µM in experiment [8], > 88.4 µM in experiment [9] and 25.2 µM in experiment [10].

`COC(=O)/C=C1\C(=O)C=C2[C@@H]3C[C@H]4C[C@H](CC[C@@]4(C)N21)C3(C)NC(C)=O` (stereo not given in full): the TGI in experiment [1] is 28.5 µM; in experiment [2] it was 55.1 µM; in [3], 29 µM; in experiment [4] it was 26.3 µM; in experiment [5] it was 46 µM; in [6], > 57.4 µM. Moreover, the TGI worked out at 33.4 µM in [7], 44.1 µM in [8], 30.6 µM in experiment [9] and 47.5 µM in [10].

With `CC1(C)C=[N+]([O-])C(C)(C)N1O`, the concentration for total growth inhibition (TGI) in experiment [1], in [2], in experiment [3], in experiment [4], in experiment [5] and in [6] was > 10 µM each time. Also, the TGI in experiment [7], in experiment [8], in experiment [9] and in experiment [10] was > 10 µM each time.

As to `CC(=O)O[C@H]1CCC2[C@@H]3CCC4NC(=O)C(C#N)C[C@]4(C)C3CC[C@@]21C` (stereo not given in full), the TGI in [1], in experiment [2], in experiment [3], in [4], in experiment [5] and in experiment [6] was > 10 µM throughout. For the same compound, the TGI in [7], in experiment [8], in [9] and in [10] was > 10 µM throughout.

Regarding `O=[N+]([O-])c1cc(F)ccc1Sc1ccccc1`, the total growth inhibition concentration (TGI) in experiment [1], in [2], in [3], in [4], in experiment [5] and in [6] was > 10 µM each time. The total growth inhibition concentration (TGI) in experiment [7], in experiment [8], in experiment [9] and in experiment [10] was > 10 µM in each case.

Consider `C[C@]12CC[C@H]3[C@@H](CCC4=C(Br)C(=O)C=C[C@@]43O)[C@@H]1CCC2=O`, for which the total growth inhibition concentration (TGI) in experiment [1], in experiment [2], in experiment [3], in experiment [4], in experiment [5] and in [6] was > 100 µM throughout. The TGI in [7] is > 100 µM; in experiment [8], > 100 µM; in experiment [9], > 100 µM; in experiment [10] it was 75.9 µM.

`COc1cc(C)cc2c(-c3c(O)cc(O)c4c3C[C@H](C)N[C@H]4C)cc(-c3cc(-c4c(O)cc(O)c5c4C[C@H](C)N[C@H]5C)c4cc(C)cc(OC)c4c3O)c(O)c12`: the total growth inhibition concentration (TGI) in [1], in [2], in [3], in [4], in experiment [5] and in [6] was > 100 µM in each case. For the same compound, the TGI in experiment [7], in [8], in experiment [9] and in experiment [10] was > 100 µM in each case.

`COc1cc2oc(-c3ccc4c(c3)OCO4)c(OC)c(=O)c2c(O)c1OC`: the TGI in experiment [1], in [2], in experiment [3], in experiment [4], in [5] and in experiment [6] was > 50 µM in each case. The TGI in [7], in experiment [8], in [9] and in experiment [10] was > 50 µM each time.

As for `COC(=O)c1cc(C)ccc1C1CN=NC12Cc1c(C)cc(C)cc1C2=O` (stereo not given), the concentration for total growth inhibition (TGI) in [1] was > 100 µM; in experiment [2] it was 87.6 µM; in experiment [3], 75.5 µM; in experiment [4], > 100 µM; in experiment [5], > 100 µM; in [6], > 100 µM. In addition, the total growth inhibition concentration (TGI) in experiment [7] was 42 µM; in [8] it was 97.4 µM; in experiment [9], > 100 µM; in experiment [10], 40.9 µM.

For the compound `COC1(OC)C=CC(=O)C=C1`, the TGI is 12.8 µM in experiment [1]; 10.4 µM in experiment [2]; 12.4 µM in experiment [3]; 11.6 µM in experiment [4]; 8.56 µM in experiment [5]; 21.3 µM in experiment [6]. Further, the TGI in [7] was > 36.8 µM; in experiment [8], 23.9 µM; in experiment [9], 21.9 µM; in [10] it was 11 µM.

Take `Cc1c(C#N)c(=N)oc2ccccc12`: the TGI in experiment [1], in experiment [2], in experiment [3], in [4], in [5] and in [6] was > 100 µM in each case. Besides, the TGI in experiment [7], in experiment [8], in experiment [9] and in experiment [10] was > 100 µM throughout.

`O=C(O)CCSC1=NCCN1`: the total growth inhibition concentration (TGI) in [1], in experiment [2], in experiment [3], in experiment [4], in experiment [5] and in [6] was > 100 µM in each case. Further, the total growth inhibition concentration (TGI) in experiment [7], in experiment [8], in experiment [9] and in experiment [10] was > 100 µM each time.

Consider `Cc1ccc(/C=N\NC(=O)c2ccncc2)s1`, for which the concentration for total growth inhibition (TGI) in experiment [1], in [2], in experiment [3], in experiment [4], in experiment [5] and in [6] was > 100 µM each time. The concentration for total growth inhibition (TGI) in [7], in experiment [8], in experiment [9] and in experiment [10] was > 100 µM in each case.

As for `Clc1nc2c(C#Cc3ccccc3)ncnc2n1C1CCCCO1` (stereo not given), the TGI in experiment [1] was 94.1 µM; in experiment [2], > 100 µM; in experiment [3] it was 30.4 µM; in experiment [4] it was 28.1 µM; in [5], 30.9 µM; in experiment [6] it was 37.3 µM. For the same compound, the total growth inhibition concentration (TGI) amounted to 25.2 µM in experiment [7], 54.4 µM in experiment [8], 12.4 µM in [9] and 34 µM in experiment [10].

In the case of `Cc1cn(CCOCCOC(=O)NC(CCCNC(N)=O)C(=O)O)c(=O)[nH]c1=O` (stereo not given), the total growth inhibition concentration (TGI) in [1], in experiment [2], in experiment [3], in experiment [4], in experiment [5] and in experiment [6] was > 100 µM throughout. In addition, the total growth inhibition concentration (TGI) in [7], in [8], in [9] and in experiment [10] was > 100 µM in each case.

In the case of `N#C/C(C(=O)Nc1ccccc1)=C(/N)N1CCCCC1`, the total growth inhibition concentration (TGI) in experiment [1], in [2], in experiment [3], in experiment [4], in experiment [5] and in experiment [6] was > 100 µM in each case. Further, the concentration for total growth inhibition (TGI) in experiment [7], in experiment [8], in [9] and in experiment [10] was > 100 µM each time.

Take `CCN(CC)C1Oc2cc3c(cc2C(c2cc(OC)c(OC)c(OC)c2)C1C)OCO3` (stereo not given): the TGI was 0.535 µM in [1]; 4.54 µM in [2]; 5.79 µM in experiment [3]; > 44.2 µM in experiment [4]; > 38.7 µM in experiment [5]; > 46.8 µM in [6]. The TGI in experiment [7] was 0.456 µM; in experiment [8] it was 10 µM; in [9] it was > 75.5 µM; in [10], 96.5 µM.

Consider `NC1c2c(Cl)sc(Cl)c2C(=O)C1O` (stereo not given), for which the concentration for total growth inhibition (TGI) in [1] was > 100 µM; in experiment [2], > 100 µM; in [3] it was > 100 µM; in experiment [4], 47.4 µM; in experiment [5] it was 99.6 µM; in experiment [6] it was > 100 µM. Besides, the TGI in [7] is > 100 µM; in experiment [8], > 100 µM; in experiment [9], 57.6 µM; in [10], 84.3 µM.

As a reminder, the TGI is the concentration at which net growth stops. Low readings indicate greater sensitivity of the cells, high ones lower sensitivity of the cells.
